Measured values from the Kinase Knowledgebase extract (Sharma et al. 2016).

Columns and labels:
MAPK14 (human) [1] = target: MAPK14 (human) (UniProt Q16539); test: Hydroxyurea-induced Hemoglobinization (K562 Cells); conditions: concentration not given here
MAPK14 (human) [2] = target: MAPK14 (human) (UniProt Q16539); test: Sodium butyrate-induced Hemoglobinization (K562 Cells); conditions: concentration not given here

MAPK14 (human), sequence (Q16539 whole entry, looked up): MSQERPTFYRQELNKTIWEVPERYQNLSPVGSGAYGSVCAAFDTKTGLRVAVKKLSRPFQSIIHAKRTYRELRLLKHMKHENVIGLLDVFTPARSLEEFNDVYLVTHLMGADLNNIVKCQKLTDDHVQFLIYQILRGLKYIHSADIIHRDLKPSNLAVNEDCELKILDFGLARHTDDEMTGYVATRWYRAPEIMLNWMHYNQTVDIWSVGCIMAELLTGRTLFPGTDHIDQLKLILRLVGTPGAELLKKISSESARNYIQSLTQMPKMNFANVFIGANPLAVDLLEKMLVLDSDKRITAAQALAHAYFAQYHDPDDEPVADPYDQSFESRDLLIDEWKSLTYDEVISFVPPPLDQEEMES

| cell count (MAPK14 (human) [1]) [%] | cell count (MAPK14 (human) [2]) [%] | SMILES |
| --- | --- | --- |
| 32.4 | – | COc1cccc(-c2cc(=O)c3ccccc3o2)c1N |
| 54 | – | COc1cccc(-c2cc(=O)c3ccccc3o2)c1N.NC(=O)NO |
| – | 39.8 | CCCC(=O)[O-].[Na+] |
